Measured values published in patent publication US20210353648A1, “GRAPIPRANT UNIT DOSAGE FORMS” (Arrys Therapeutics, Inc., priority 2018, published 2021).

Legend:
Assay type in all cases: in vivo, BALB/c mice
[1] = test system: CT-26 mouse colon adenocarcinoma model; assay: Anti-tumor activity in the CT-26 model, additional experiment with anti-PD1; conditions: single agents (Compound B 15 mg/kg BID; anti-PD1 10 mg/kg BIW) versus vehicle, n=7/group
Procedure: (§1) The antitumor activity of Compound B as a single agent and combined with a mouse anti-PD1 antibody was evaluated in the CT-26 mouse colon adenocarcinoma model grown in BALB/c mice in an additional experiment. Mice were inoculated subcutaneously in the right flank with 5×10^5 tumor cells. When tumors reached an average size of 91 mm^3 dosing was initiated. The dosing regimens in the 4 separate cohorts comprising 7 mice each are as follows: […]

[2] = test system: CT-26 tumors; assay: Immune cell composition of CT-26 tumors by flow cytometry; conditions: after 7 days dosing; Compound B 15 mg/kg BID, anti-PD-1 10 mg/kg Q3D; versus vehicle
Procedure: The immune cell composition of Compound B (as described in example 9 above) as a single agent and combined with a mouse anti-PD1 antibody was evaluated in the CT-26 mouse colon adenocarcinoma model grown in BALB/c mice. Mice were inoculated subcutaneously in the right flank with 5×10^5 tumor cells. When tumors reached an average size of 85 mm^3 dosing was initiated. The dosing regimens in the 4 separate cohorts comprising 10 mice each are listed as follows:
After dosing animals for 7 days, tumors were resected and used to prepare single cell suspensions. Live cells representing tumor and immune cells were stained with cocktails of antibodies targeting multiple immune cell markers (anti-CD45, anti-CD3, anti-CD4, anti-CD8, anti-CD25, anti-FoxP3, anti-PD-1, anti-CD11c) conjugated to different fluorescent tags. The stained cells were fixed in 4% paraformaldehyde and quantified using a multi-color flow cytometer (Fortessa). The data was analyzed with FloJo software.

[3] = test system: 4T1 mouse breast cancer model; assay: Anti-tumor activity in the 4T1 model, additional experiment with anti-PD1; conditions: Compound B 15 mg/kg BID single agent, n=7/group
Procedure: as §1, with “4T1” for “CT-26”, “breast cancer” for “colon adenocarcinoma”, “3×10^5” for “5×10^5”, “97” for “91”

[4] = test system: 4T1 mouse breast cancer model; assay: Anti-tumor activity in the 4T1 breast cancer mouse model, alone and with anti-CTLA4
Procedure: The antitumor activity of Compound B (as described in example 9 above) as a single agent and combined with a mouse anti-CTLA4 antibody was evaluated in the 4T1 mouse breast cancer model grown in BALB/c mice. Mice were inoculated subcutaneously in the right flank with 3×10^5 tumor cells. When tumors reached an average size of 100 mm^3 (7 days after tumor cell inoculation) dosing was initiated.

[5] = test system: CT-26 mouse colon adenocarcinoma model; assay: Anti-tumor activity in the CT-26 colon adenocarcinoma mouse model, alone and with anti-PD-1
Procedure: as §1, with “anti-PD-1” for “anti-PD1”, “mice.” for “mice in an additional experiment.”, “71” for “91”, “mm^3 (6 days after tumor cell inoculation)” for “mm^3”, “8” for “4”, “10” for “7”

For `C[C@H](NC(=O)c1cc(Cl)cnc1Oc1cccc(F)c1)c1ccc(C(=O)O)cc1` [Compound B], the “tumor growth kinetics during the period of dosing” value [1] was “less than that of the vehicle group”, the “percentage of activated T cells (CD45, CD3, CD8; CD25 expression)” value [2] was “did not” and the “percentage of dendritic cells (CD45, CD11c positive)” value [2] was “increased percentage”. For the same compound, the “regulatory T cells (CD45, CD4, FoxP3, CD25 positive)” value [2] was “significant decrease”, the “tumor growth kinetics during the period of dosing” value [3] was “less than that of the vehicle group and anti-PD1 when dosed alone” and the mice still alive ([4]; 47 days after tumor inoculation) was “none”. For the same compound, the “tumor growth kinetics during the period of dosing” value ([4]; single agents (Compound B 15 mg/kg BID; anti-CTLA4) versus vehicle, n=10/group) was “decreased relative to the vehicle treated mice”, the “tumor growth kinetics during the period of dosing” value ([5]; 15 mg/kg QD and BID p.o., single agent, versus vehicle, n=10/group) was “not notably different from the vehicle treated mice” and the mice still alive ([5]; 99 days after tumor inoculation) was 1 out of 10 mice. For the same compound, the tumor free mice ([5]; 99 days after tumor inoculation, 10 mice per group) was 1 mice.
